Assay results: article PMC4291487, “Stress-induced ceramide generation and apoptosis via the phosphorylation and activation of nSMase1 by JNK signaling” (Cell Death and Differentiation, 2014)
Numbering of substitutions follows the chain as printed.

Assays:
Type in all cases: biochemical
[1] = target: T1, nSMase1 (wild-type), zebrafish (Danio rerio, UniProt F1QUD7, S270A); test: C6-NBD-ceramide release assay; conditions: 37 °C; basal enzyme, not JNK-treated
T1 construct: gene smpd2a; zebrafish cDNA
T1 sequence (F1QUD7 1-421 S270A): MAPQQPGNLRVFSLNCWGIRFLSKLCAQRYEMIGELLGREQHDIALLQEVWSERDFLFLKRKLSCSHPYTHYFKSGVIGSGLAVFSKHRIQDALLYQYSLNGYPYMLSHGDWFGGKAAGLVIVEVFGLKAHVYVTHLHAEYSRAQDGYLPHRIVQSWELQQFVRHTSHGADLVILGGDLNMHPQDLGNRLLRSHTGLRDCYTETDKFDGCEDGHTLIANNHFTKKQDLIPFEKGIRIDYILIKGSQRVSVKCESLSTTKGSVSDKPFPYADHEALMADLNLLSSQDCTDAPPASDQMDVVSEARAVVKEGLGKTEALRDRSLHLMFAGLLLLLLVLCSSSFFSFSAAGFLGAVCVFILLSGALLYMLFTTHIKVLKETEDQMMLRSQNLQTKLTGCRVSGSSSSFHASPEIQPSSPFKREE

[2] = target: T2, nSMase1 (wild-type), zebrafish (Danio rerio, UniProt F1QUD7); test: C6-NBD-ceramide release assay; conditions: 37 °C; basal enzyme, not JNK-treated
T2 construct: gene smpd2a; zebrafish cDNA
T2 sequence (F1QUD7 1-421): T1 sequence (F1QUD7 1-421 S270A) with A270S

mouse JNK1 = target: T3, mouse JNK1 (Mus musculus, UniProt Q91Y86); conditions: 10 μM SP600125; 0.25 mM ATP, 10 mM MgCl2, pH 7.4, 30 °C, 30 min
T3 construct: gene Mapk8; commercial recombinant protein (Cell Signaling Technology)
T3 sequence (Q91Y86 whole entry): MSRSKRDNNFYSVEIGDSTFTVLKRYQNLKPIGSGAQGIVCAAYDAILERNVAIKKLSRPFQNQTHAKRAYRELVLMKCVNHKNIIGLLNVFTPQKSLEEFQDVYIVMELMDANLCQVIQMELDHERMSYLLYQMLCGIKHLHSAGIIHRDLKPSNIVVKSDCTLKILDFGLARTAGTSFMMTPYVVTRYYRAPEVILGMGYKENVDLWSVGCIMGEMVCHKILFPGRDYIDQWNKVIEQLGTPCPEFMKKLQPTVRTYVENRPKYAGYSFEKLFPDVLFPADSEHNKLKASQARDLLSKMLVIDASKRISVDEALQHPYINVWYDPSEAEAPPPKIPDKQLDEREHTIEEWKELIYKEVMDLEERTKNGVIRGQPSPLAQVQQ

Structure (SMILES)	C6-NBD-ceramide release assay [1]	C6-NBD-ceramide release assay [2]	phosphorylation inhibition at 10 μM (mouse JNK1)
CCCCCCCCCCCCC/C=C/[C@@H](O)[C@H](COP(=O)([O-])OCC[N+](C)(C)C)NC(=O)CCCCCNc1ccc([N+](=O)[O-])c2nonc12 [C6-NBD-sphingomyelin]	nSMase activities of the recombinant proteins were determined using C6-NBD-sphingomyelin	nSMase activities of the recombinant proteins were determined using C6-NBD-sphingomyelin	–
O=C1c2ccccc2-c2n[nH]c3cccc1c23 [SP600125, Anthra[1,9-cd]pyrazol-6(2H)-one]	–	–	wild-type pulsed with SP600125 were not phosphorylated
